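The compound was tested at five concentrations on cells cultured in 96-well plates, with a 48-hour exposure period. At the GI50, growth is halved.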 Activity calls are given as the source filed them. Cut-off read from the data, not from the text of the source: active = GI50 up to about 1.1 µM and inactive = higher.
Tests used:
Assay in all cases: NCI anticancer screen, dose series, 48 h
[1] = tested on: ACHN
[2] = tested on: HCC 2998
[3] = tested on: SR
[4] = tested on: COLO 205
[5] = tested on: IGROV-1
[6] = tested on: MDA-MB-231
[7] = tested on: DU-145
[8] = tested on: HL-60
[9] = tested on: PC-3
[10] = tested on: SW-620
[11] = tested on: 786-0
[12] = tested on: NCI-H522
[13] = tested on: MCF7
[14] = tested on: SNB-19
[15] = tested on: NCI-H226
[16] = tested on: EKVX
[17] = tested on: RXF 393
[18] = tested on: Hs-578T
[19] = tested on: NCI-H23
[20] = tested on: OVCAR-8
[21] = tested on: A498
[22] = tested on: NCI-H460
[23] = tested on: OVCAR-5
[24] = tested on: BT-549
[25] = tested on: U-251
[26] = tested on: SK-OV-3
[27] = tested on: HCT-15
[28] = tested on: MDA-MB-435
[29] = tested on: HOP-62
[30] = tested on: SN12C
[31] = tested on: NCI/ADR-RES
[32] = tested on: HCT-116
[33] = tested on: SF-295
[34] = tested on: OVCAR-4
[35] = tested on: SF-539
[36] = tested on: SK-MEL-5
[37] = tested on: OVCAR-3
[38] = tested on: UACC-257
[39] = tested on: KM12
[40] = tested on: HT-29
[41] = tested on: LOX IMVI
[42] = tested on: CCRF-CEM
[43] = tested on: K562
[44] = tested on: T47D
[45] = tested on: UO-31
[46] = tested on: SK-MEL-28
[47] = tested on: MOLT-4
[48] = tested on: Malme-3M
[49] = tested on: SF-268
[50] = tested on: A549
[51] = tested on: TK-10
[52] = tested on: RPMI-8226
[53] = tested on: UACC-62

## CC(O[Si](C)(C)C(C)(C)C)[C@H](NC(=O)OCC(Cl)(Cl)Cl)C(=O)O (stereo partly drawn)
[1]
  GI50: 55.1 µM (inactive)
[2]
  GI50: > 100 µM (inactive)
[3]
  GI50: > 100 µM (inactive)
[4]
  GI50: > 100 µM (inactive)
[5]
  GI50: > 100 µM (inactive)
[6]
  GI50: > 100 µM (inactive)
[7]
  GI50: > 100 µM (inactive)
[8]
  GI50: > 100 µM (inactive)
[9]
  GI50: > 100 µM (inactive)
[10]
  GI50: > 100 µM (inactive)
[11]
  GI50: > 100 µM (inactive)
[12]
  GI50: 78 µM (inactive)
[13]
  GI50: > 100 µM (inactive)
[14]
  GI50: > 100 µM (inactive)
[15]
  GI50: > 100 µM (inactive)
[16]
  GI50: > 100 µM (inactive)
[17]
  GI50: > 100 µM (inactive)
[18]
  GI50: > 100 µM (inactive)
[19]
  GI50: 95.3 µM (inactive)
[20]
  GI50: > 100 µM (inactive)
[21]
  GI50: > 100 µM (inactive)
[22]
  GI50: > 100 µM (inactive)
[23]
  GI50: > 100 µM (inactive)
[24]
  GI50: > 100 µM (inactive)
[25]
  GI50: > 100 µM (inactive)
[26]
  GI50: > 100 µM (inactive)
[27]
  GI50: > 100 µM
[28]
  GI50: > 100 µM (inactive)
[29]
  GI50: > 100 µM (inactive)
[30]
  GI50: > 100 µM (inactive)
[31]
  GI50: > 100 µM (inactive)
[32]
  GI50: > 100 µM (inactive)
[33]
  GI50: 51.2 µM (inactive)
[34]
  GI50: > 100 µM (inactive)
[35]
  GI50: > 100 µM (inactive)
[36]
  GI50: > 100 µM (inactive)
[37]
  GI50: 79.6 µM (inactive)
[38]
  GI50: > 100 µM (inactive)
[39]
  GI50: 56 µM (inactive)
[40]
  GI50: > 100 µM (inactive)
[41]
  GI50: > 10 µM (inactive)
[42]
  GI50: > 100 µM (inactive)
[43]
  GI50: > 100 µM (inactive)
[44]
  GI50: > 100 µM (inactive)
[45]
  GI50: > 100 µM (inactive)
[46]
  GI50: > 100 µM (inactive)
[47]
  GI50: > 100 µM (inactive)
[48]
  GI50: > 100 µM (inactive)
[49]
  GI50: > 100 µM (inactive)
[50]
  GI50: > 100 µM (inactive)
[51]
  GI50: > 100 µM (inactive)
[52]
  GI50: 84.7 µM (inactive)
[53]
  GI50: 53.5 µM (inactive)

From ChEMBL document CHEMBL1201862, “PubChem BioAssay data set” (2004)
